From patent publication US20250100996A1, “HETEROCYCLOALKYL AND HETEROARYL COMPOUNDS AND PHARMACEUTICAL COMPOSITIONS THAT MODULATE IKZF2” (Plexium, Inc., priority 2021, published 2025) come the findings set out here.

A word on the EC50: it is the concentration needed to bring the measured effect to its halfway point. As a reminder, the DC50 is the midpoint of the concentration-degradation curve. As a reminder, the inhibition is the change of the read-out against control, counted positive when it falls. Lower therefore signals a response near the control.

Assay [1] concerns the target T1, human E3 ligase component cereblon (CRBN) (Homo sapiens, UniProt Q96SW2).
T1 construct: host or cells: HEK293T
As to the kind of experiment: Cereblon (CRBN) target engagement, NanoBRET TE Intracellular E3 Ligase Assay in transfected HEK-293T cells. As to conditions: read-out: CRBN Binding EC50. The procedure, abridged:
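Tracer displacement was read as the 610/450 nm BRET signal after 2 h at 37° C with an 11-point dilution series, typically 10 μM to 100 pM. Live HEK-293T cells expressed NanoLuc fused N-terminal to human CRBN together with DDB1. IC50 was fitted with a four-parameter logistic model.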
Background: BRET reads energy transfer from a luciferase to a nearby fluorophore.

A further assay addresses T2, IKZF1 (Ikaros) (Homo sapiens, UniProt Q13422).
T2 construct: mScarlet (behind P2A) (C, cleaved yes); expressed in transfected cells
Put plainly: IKZF1 reporter degradation assay (HEK 293T IKZF1-mNeonGreen reporter cell line). Particulars: HEK 293T IKZF1-mNeonGreen reporter, 24 hours incubation. In kind it is cell-based. The text has this: Polycistronic plasmids were constructed for the mammalian expression of fluorescent reporter fusions of human transcription factors IKZF1 (Ikaros), IKZF2 (Helios), and IKZF3 (Aiolos). The respective protein sequences had their C-terminal end joined to a GGGGS linker repeated three times followed by mNeonGreen, P2A sequence, and mScarlet. The DNA sequences of the open reading frames are as follows:
IKZF1, IKZF2, and IKZF3 constructs were cloned into the UCOE Hygromycin expression vectors (Millipore Sigma). Reporter constructs were transfected using cationic lipid reagents into adherent HEK 293T cells and stable integrants were selected by treatment with 200 μg/mL hygromycin B. Clonal populations were obtained from the population of stable integrants either by limiting dilution or fluorescence activated cell sorting.
The clonal stable cell lines were maintained under constant 200 μg/mL hygromycin B selection while being passaged for use in the degradation assays. […] The fluorescence intensity of the IKZF1/2/3-mNeonGreen (FITC channel) and mScarlet (PE channel) reporters were routinely analyzed by flow cytometry to confirm consistent expression levels between experiments.
The IKZF1/IKZF2/IKZF3 degradation assays were carried out by harvesting the HEK 293T reporter cell lines and resuspending the cells in media formulated for reduced background fluorescence (FluoroBrite; Thermo Fisher). The respective cell lines were seeded at a density of 4000 cells/well into black-walled 384-well optical grade assay tissue culture plates. The cells were incubated overnight at 37° C. to allow for attachment to the assay plate. Dilutions of the compounds were prepared in DMSO from 10 mM compound stocks. The assay plates were treated with appropriate concentrations of the compounds by dispensing the DMSO dilutions in quadruplicate wells with an upper limit of 0.5% final DMSO.
After 24 hours incubation with the compounds, the assay plates were imaged on an ImageXpress Pico microscopy system (cells maintained at 37° C. during imaging) to obtain the fluorescent readouts. The assay plates were imaged in the FITC and Tetramethylrhodamine (TRITC) channels to obtain the mNeonGreen fluorescence intensity (reporter degradation data) and mScarlet fluorescence intensity (for cell segmentation). 293T-IKZF1 and 293T-IKZF3 reporter cell lines were imaged with exposures of 500 milliseconds (ms) for both FITC and TRITC channels, while the 293T-IKZF2 reporter cell line was imaged with exposures of 1000 ms for FITC and 1250 ms for TRITC. The resulting data was analyzed with Cell Reporter Xpress software using the 2-channel cell scoring analysis with a “percent positive” readout. The TRITC channel was selected for the “nuclei” segmentation with a threshold of 20 while the FITC channel was selected for the “Marker 1” segmentation and a threshold of 100 for the IKZF1 and IKZF3 reporter lines. […] The minimum segmentation width was set to 6 micrometers and the maximum segmentation width was set to 15 micrometers for all cell lines. The DC50 calculations were determined by regression to best fit four-parameter logistic curves using GraphPad Prism.

The target of assay [2] is T3, IKZF2 (Helios) (Homo sapiens, UniProt Q96SW2+Q9UKS7).
T3 construct: Leu-Asp junction (codons ctcgac before the linker); mScarlet (behind P2A) (C, cleaved yes); expressed in transfected cells
Put plainly: IKZF2 reporter degradation assay (HEK 293T IKZF2-mNeonGreen reporter cell line). In kind it is cell-based. Particulars: @ 1 μM, HEK 293T IKZF2-mNeonGreen reporter, 24 hours incubation; for inhibition at 1 µM: HEK-293T, 24 h. The procedure, abridged:
(§1)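 DC50 values come from four-parameter logistic regression of percent mNeonGreen-positive cells, imaged with mScarlet-based segmentation after 24 h compound exposure at 37° C. Quadruplicate wells had at most 0.5% DMSO. Reporters are C-terminal IKZF-mNeonGreen fusions with P2A-mScarlet, stably expressed in clonal HEK 293T lines.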

Assay [3] addresses T4, IKZF2 (Helios) (Homo sapiens, UniProt Q9UKS7).
T4 construct: Leu-Asp junction (codons ctcgac before the linker); mScarlet (behind P2A) (C, cleaved yes); expressed in transfected cells
Described as above. In kind it is cell-based. As to conditions: HEK 293T IKZF2-mNeonGreen reporter, 24 hours incubation. The gist of the method: as §1

The target of a further assay is T5, IKZF3 (Aiolos) (Homo sapiens, UniProt Q9UKT9).
T5 construct: Leu-Asp junction (codons ctcgac before the linker); mScarlet (behind P2A) (C, cleaved yes); expressed in transfected cells
As to the kind of experiment: IKZF3 reporter degradation assay (HEK 293T IKZF3-mNeonGreen reporter cell line). In kind it is cell-based. As to conditions: HEK 293T IKZF3-mNeonGreen reporter, 24 hours incubation. The gist of the method:
as §1

T3 sequence (Q9UKS7 whole entry): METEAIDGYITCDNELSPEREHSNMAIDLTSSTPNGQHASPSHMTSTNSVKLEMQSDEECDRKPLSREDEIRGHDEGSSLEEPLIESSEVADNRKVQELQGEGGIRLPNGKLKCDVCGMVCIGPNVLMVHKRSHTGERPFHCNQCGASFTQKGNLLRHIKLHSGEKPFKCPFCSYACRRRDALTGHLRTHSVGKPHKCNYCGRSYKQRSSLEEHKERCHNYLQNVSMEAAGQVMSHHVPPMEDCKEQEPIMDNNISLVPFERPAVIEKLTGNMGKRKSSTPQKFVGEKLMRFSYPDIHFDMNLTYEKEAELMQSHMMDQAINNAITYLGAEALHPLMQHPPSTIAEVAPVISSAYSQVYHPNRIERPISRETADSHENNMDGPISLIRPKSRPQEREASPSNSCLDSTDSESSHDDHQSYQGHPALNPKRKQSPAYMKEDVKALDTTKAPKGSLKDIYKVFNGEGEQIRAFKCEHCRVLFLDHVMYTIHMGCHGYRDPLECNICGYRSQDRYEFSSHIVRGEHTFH
T3 sequence (Q96SW2 whole entry): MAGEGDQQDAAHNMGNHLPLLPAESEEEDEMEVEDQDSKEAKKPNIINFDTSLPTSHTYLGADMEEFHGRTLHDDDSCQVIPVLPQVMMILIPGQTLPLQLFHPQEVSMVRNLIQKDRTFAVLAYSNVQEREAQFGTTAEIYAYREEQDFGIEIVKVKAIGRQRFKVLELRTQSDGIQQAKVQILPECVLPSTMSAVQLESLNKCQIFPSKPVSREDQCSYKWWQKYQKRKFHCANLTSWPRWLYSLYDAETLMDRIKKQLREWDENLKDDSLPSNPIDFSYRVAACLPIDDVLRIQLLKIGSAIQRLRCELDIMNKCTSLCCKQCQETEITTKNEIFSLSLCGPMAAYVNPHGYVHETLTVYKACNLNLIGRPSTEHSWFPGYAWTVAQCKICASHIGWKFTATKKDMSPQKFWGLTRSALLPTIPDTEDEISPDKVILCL
T3 sequence (Q16531 whole entry partner): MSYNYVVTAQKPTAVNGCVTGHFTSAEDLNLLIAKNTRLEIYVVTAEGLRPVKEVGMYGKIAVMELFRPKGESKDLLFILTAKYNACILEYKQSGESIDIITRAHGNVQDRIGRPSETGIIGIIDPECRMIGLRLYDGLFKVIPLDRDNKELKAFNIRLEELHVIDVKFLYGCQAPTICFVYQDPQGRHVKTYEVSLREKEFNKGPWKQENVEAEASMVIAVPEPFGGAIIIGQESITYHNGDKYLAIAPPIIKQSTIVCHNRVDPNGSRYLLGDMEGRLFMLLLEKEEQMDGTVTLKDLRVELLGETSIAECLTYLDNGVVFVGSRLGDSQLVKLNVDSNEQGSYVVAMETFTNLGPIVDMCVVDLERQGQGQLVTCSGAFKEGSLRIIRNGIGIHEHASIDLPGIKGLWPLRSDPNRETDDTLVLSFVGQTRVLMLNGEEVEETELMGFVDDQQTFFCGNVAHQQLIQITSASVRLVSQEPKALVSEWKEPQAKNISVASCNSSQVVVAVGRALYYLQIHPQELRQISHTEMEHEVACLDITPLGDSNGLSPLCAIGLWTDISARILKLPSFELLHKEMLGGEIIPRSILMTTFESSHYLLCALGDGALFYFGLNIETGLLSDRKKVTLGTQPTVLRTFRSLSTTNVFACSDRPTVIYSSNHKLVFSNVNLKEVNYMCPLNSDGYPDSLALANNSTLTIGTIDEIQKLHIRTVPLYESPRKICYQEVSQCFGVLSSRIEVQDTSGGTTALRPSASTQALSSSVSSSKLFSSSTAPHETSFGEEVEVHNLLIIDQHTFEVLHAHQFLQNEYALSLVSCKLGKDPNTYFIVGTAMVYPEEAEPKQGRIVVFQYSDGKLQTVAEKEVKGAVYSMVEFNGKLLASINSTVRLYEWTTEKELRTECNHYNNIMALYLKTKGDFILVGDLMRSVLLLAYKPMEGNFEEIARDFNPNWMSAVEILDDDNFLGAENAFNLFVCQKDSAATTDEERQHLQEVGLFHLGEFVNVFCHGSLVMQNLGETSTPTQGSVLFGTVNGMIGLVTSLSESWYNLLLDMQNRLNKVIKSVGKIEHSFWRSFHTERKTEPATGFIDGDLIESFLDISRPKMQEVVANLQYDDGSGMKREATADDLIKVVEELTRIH
T4 sequence (Q9UKS7 whole entry): as the sequence (Q9UKS7 whole entry) above
T4 sequence (Q96SW2 whole entry, further chain): as the sequence (Q96SW2 whole entry) above
T4 sequence (Q16531 whole entry partner): as the sequence (Q16531 whole entry partner) above
T2 sequence (Q96SW2 whole entry partner): as the sequence (Q96SW2 whole entry) above
T2 sequence (Q16531 whole entry partner): as the sequence (Q16531 whole entry partner) above
T2 sequence (Q13422 whole entry): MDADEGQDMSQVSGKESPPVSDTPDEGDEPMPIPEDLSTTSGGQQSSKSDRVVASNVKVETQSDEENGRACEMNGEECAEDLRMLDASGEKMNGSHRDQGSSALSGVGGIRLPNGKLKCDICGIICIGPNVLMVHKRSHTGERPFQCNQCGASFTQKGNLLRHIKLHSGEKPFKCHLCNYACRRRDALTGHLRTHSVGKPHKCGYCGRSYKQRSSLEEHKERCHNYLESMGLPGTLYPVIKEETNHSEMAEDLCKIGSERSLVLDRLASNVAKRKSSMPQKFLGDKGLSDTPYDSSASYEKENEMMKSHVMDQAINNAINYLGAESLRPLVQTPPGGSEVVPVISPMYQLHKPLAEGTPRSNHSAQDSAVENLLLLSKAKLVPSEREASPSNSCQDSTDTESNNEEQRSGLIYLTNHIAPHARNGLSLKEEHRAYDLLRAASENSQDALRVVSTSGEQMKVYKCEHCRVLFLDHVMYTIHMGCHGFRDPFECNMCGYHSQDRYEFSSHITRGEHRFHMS
T1 sequence (Q96SW2 whole entry): as the sequence (Q96SW2 whole entry) above
T1 sequence (Q16531 whole entry partner): as the sequence (Q16531 whole entry partner) above
T5 sequence (Q96SW2 whole entry partner): as the sequence (Q96SW2 whole entry) above
T5 sequence (Q16531 whole entry partner): as the sequence (Q16531 whole entry partner) above
T5 sequence (Q9UKT9 whole entry): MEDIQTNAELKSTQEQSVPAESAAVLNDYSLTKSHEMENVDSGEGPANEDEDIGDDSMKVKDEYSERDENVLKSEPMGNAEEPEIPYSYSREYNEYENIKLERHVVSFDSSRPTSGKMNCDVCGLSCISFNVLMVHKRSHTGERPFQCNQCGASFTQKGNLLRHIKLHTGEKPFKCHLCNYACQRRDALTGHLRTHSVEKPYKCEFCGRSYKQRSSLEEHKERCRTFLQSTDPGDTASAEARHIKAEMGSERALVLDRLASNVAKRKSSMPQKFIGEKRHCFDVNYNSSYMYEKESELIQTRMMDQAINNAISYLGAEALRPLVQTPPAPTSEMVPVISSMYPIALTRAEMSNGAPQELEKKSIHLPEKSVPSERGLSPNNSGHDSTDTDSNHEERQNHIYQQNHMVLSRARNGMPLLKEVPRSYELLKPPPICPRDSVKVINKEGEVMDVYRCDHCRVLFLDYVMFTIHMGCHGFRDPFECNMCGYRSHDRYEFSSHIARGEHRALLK

Take `Cc1cnc(C2CN([C@H]3CCCC3Oc3ccc4c(c3)CN(C3CCC(=O)NC3=O)C4=O)C2)o1` (mixture of isomers) [Compound 161-B, Rac-3-(5-(((cis)-2-(3-(5-methyloxazol-2-yl)azetidin-1-yl)cyclopentyl)oxy)-1-oxoisoindolin-2-yl)piperidine-2,6-dione]: the EC50 in assay [1] was found to be 120 nM. For the same compound, the DC50 is more than 30000 nM on IKZF1 (Ikaros), 138 nM on IKZF2 (Helios) [3] and more than 30000 nM on IKZF3 (Aiolos). On IKZF2 (Helios) [2], this compound yielded an inhibition at 1 µM of 49.7%.
For `O=C1CCC(N2Cc3cc(O[C@@H]4CCCC[C@@H]4N4CC(c5ccncc5Cl)C4)ccc3C2=O)C(=O)N1` (mixture of isomers) [Compound 162-B, Rac-3-(5-(((cis)-2-(3-(3-chloropyridin-4-yl)azetidin-1-yl)cyclohexyl)oxy)-1-oxoisoindolin-2-yl)piperidine-2,6-dione], the EC50 in assay [1] amounted to 59 nM. The figures for the DC50 at IKZF1 (Ikaros), on IKZF2 (Helios) [3] and at IKZF3 (Aiolos) were more than 30000 nM, 22 nM and more than 30000 nM, respectively. At IKZF2 (Helios) [2], this compound gave an inhibition at 1 µM of 70.4%.
With `O=C1CCC(N2Cc3cc(O[C@@H]4CCCC[C@H]4N4CC(c5ccc(Cl)cn5)C4)ccc3C2=O)C(=O)N1` (mixture of isomers) [Compound 163-B, Rac-3-(5-(((trans)-2-(3-(5-chloropyridin-2-yl)azetidin-1-yl)cyclohexyl)oxy)-1-oxoisoindolin-2-yl)piperidine-2,6-dione], the EC50 in assay [1] was 11 nM. In addition, the DC50 at IKZF1 (Ikaros) is more than 30000 nM; at IKZF2 (Helios) [3], 11 nM; on IKZF3 (Aiolos) it was more than 30000 nM. For the same compound, the inhibition at 1 µM against IKZF2 (Helios) [2] was determined as 71.5%.
Take `O=C1CCC(N2Cc3cc(O[C@H]4CCCC[C@@H]4N4CC(c5ccncc5F)C4)ccc3C2=O)C(=O)N1` (mixture of isomers) [Compound 167-B, Rac-3-(5-(((trans)-2-(3-(3-fluoropyridin-4-yl)azetidin-1-yl)cyclohexyl)oxy)-1-oxoisoindolin-2-yl)piperidine-2,6-dione]: in assay [1], the EC50 is 74 nM. Also, the DC50 was more than 30000 nM on IKZF1 (Ikaros), 241 nM on IKZF2 (Helios) [3] and more than 30000 nM at IKZF3 (Aiolos). Besides, the inhibition at 1 µM at IKZF2 (Helios) [2] came out at 28.8%.
Consider `O=C1CCC(N2Cc3cc(O[C@H]4CCCC[C@@H]4N4CC(c5ccncc5Cl)C4)ccc3C2=O)C(=O)N1` (mixture of isomers) [Compound 173-B, Rac-3-(5-(((trans)-2-(3-(3-chloropyridin-4-yl)azetidin-1-yl)cyclohexyl)oxy)-1-oxoisoindolin-2-yl)piperidine-2,6-dione], for which the EC50 in assay [1] came out at 52 nM. Moreover, the results for the DC50 on IKZF1 (Ikaros), on IKZF2 (Helios) [3] and at IKZF3 (Aiolos) were more than 30000 nM, 31 nM and more than 30000 nM, respectively. Moreover, at IKZF2 (Helios) [2], the inhibition at 1 µM amounted to 66.7%.
For the compound `Cc1cnc(C2CN([C@H]3CCCC[C@H]3Oc3ccc4c(c3)CN(C3CCC(=O)NC3=O)C4=O)C2)o1` (mixture of isomers) [Compound 174-B, Rac-3-(5-(((cis)-2-(3-(5-methyloxazol-2-yl)azetidin-1-yl)cyclohexyl)oxy)-1-oxoisoindolin-2-yl)piperidine-2,6-dione], the EC50 in assay [1] was 36 nM. The DC50 is more than 30000 nM on IKZF1 (Ikaros), 28 nM at IKZF2 (Helios) [3] and more than 30000 nM at IKZF3 (Aiolos). The same compound had an inhibition at 1 µM at IKZF2 (Helios) [2] of 70.3%.
Take `N#Cc1cc(C2CN([C@@H]3CCCC[C@@H]3Oc3ccc4c(c3)CN(C3CCC(=O)NC3=O)C4=O)C2)ccn1` (mixture of isomers) [Compound 179-B, Rac-4-(1-((cis)-2-((2-(2,6-dioxopiperidin-3-yl)-1-oxoisoindolin-5-yl)oxy)cyclohexyl)azetidin-3-yl)picolinonitrile]: in assay [1], the EC50 amounted to 39 nM. Also, the results for the DC50 on IKZF1 (Ikaros), on IKZF2 (Helios) [3] and on IKZF3 (Aiolos) were more than 30000 nM, 46 nM and more than 30000 nM, respectively. The compound also showed an inhibition at 1 µM against IKZF2 (Helios) [2] of 68.6%.
Consider `O=C1CCC(N2Cc3cc(O[C@@H]4CCCC[C@@H]4N4CC(c5ccc(C(F)(F)F)cn5)C4)ccc3C2=O)C(=O)N1` (mixture of isomers) [Compound 182-B, Rac-3-(1-oxo-5-(((cis)-2-(3-(5-(trifluoromethyl)pyridin-2-yl)azetidin-1-yl)cyclohexyl)oxy)isoindolin-2-yl)piperidine-2,6-dione], for which, in assay [1], the EC50 was found to be 9 nM. Further, the values for the DC50 on IKZF1 (Ikaros), at IKZF2 (Helios) [3] and at IKZF3 (Aiolos) were more than 30000 nM, 5 nM and more than 30000 nM, respectively. Moreover, the inhibition at 1 µM at IKZF2 (Helios) [2] was 78.3%.
With `O=C1CCC(N2Cc3cc(O[C@@H]4CCCC[C@@H]4N4CC(c5ccc(C(F)(F)F)nc5)C4)ccc3C2=O)C(=O)N1` (mixture of isomers) [Compound 183-B, Rac-3-(1-oxo-5-(((cis)-2-(3-(6-(trifluoromethyl)pyridin-3-yl)azetidin-1-yl)cyclohexyl)oxy)isoindolin-2-yl)piperidine-2,6-dione], the concentration for a half-maximal effect (EC50) in assay [1] was determined as 15 nM. Further, the results for the 50% degradation concentration (DC50) at IKZF1 (Ikaros), at IKZF2 (Helios) [3] and at IKZF3 (Aiolos) were more than 30000 nM, 10 nM and more than 30000 nM, respectively. The inhibition at 1 µM against IKZF2 (Helios) [2] turned out to be 81.3%.
`Cc1cnc(C2CN([C@H]3CCCC[C@H]3Oc3ccc4c(c3)CN(C3CCC(=O)NC3=O)C4=O)C2)nc1` (mixture of isomers) [Compound 184-B, Rac-3-(5-(((cis)-2-(3-(5-methylpyrimidin-2-yl)azetidin-1-yl)cyclohexyl)oxy)-1-oxoisoindolin-2-yl)piperidine-2,6-dione]: the EC50 in assay [1] came out at 17 nM. Also, the DC50 at IKZF1 (Ikaros) is more than 30000 nM; at IKZF2 (Helios) [3], 21 nM; at IKZF3 (Aiolos) it was more than 30000 nM. In addition, the inhibition at 1 µM on IKZF2 (Helios) [2] was determined as 79.6%.
Turning to `Cc1ccnc(C2CN([C@H]3CCCC[C@H]3Oc3ccc4c(c3)CN(C3CCC(=O)NC3=O)C4=O)C2)n1` (mixture of isomers) [Compound 185-B, Rac-3-(5-(((cis)-2-(3-(4-methylpyrimidin-2-yl)azetidin-1-yl)cyclohexyl)oxy)-1-oxoisoindolin-2-yl)piperidine-2,6-dione], in assay [1], the EC50 turned out to be 30 nM. Besides, the DC50 at IKZF1 (Ikaros) is more than 30000 nM; at IKZF2 (Helios) [3], 21 nM; on IKZF3 (Aiolos) it was more than 30000 nM. Also, the inhibition at 1 µM against IKZF2 (Helios) [2] worked out at 80.3%.
Turning to `O=C1CCC(N2Cc3cc(O[C@@H]4CCCC[C@@H]4N4CC(c5ncc(C(F)(F)F)cn5)C4)ccc3C2=O)C(=O)N1` (mixture of isomers) [Compound 186-B, Rac-3-(1-oxo-5-(((cis)-2-(3-(5-(trifluoromethyl)pyrimidin-2-yl)azetidin-1-yl)cyclohexyl)oxy)isoindolin-2-yl)piperidine-2,6-dione], in assay [1], the EC50 turned out to be 6 nM. The figures for the DC50 on IKZF1 (Ikaros), on IKZF2 (Helios) [3] and on IKZF3 (Aiolos) were more than 30000 nM, 5 nM and more than 30000 nM, respectively. The same compound yielded an inhibition at 1 µM on IKZF2 (Helios) [2] of 79.7%.
Regarding `O=C1CCC(N2Cc3cc(O[C@H]4CCCC[C@@H]4N4CC(c5ccncc5)C4)ccc3C2=O)C(=O)N1` (single isomer, unassigned) [Compound 85-B], the EC50 in assay [1] was 28 nM. Also, the results for the DC50 at IKZF1 (Ikaros) and on IKZF2 (Helios) [3] were more than 30000 nM and 216 nM, respectively. In addition, 1 µM produced 27.5% inhibition on IKZF2 (Helios) [2].
As for `O=C1CCC(N2Cc3cc(O[C@H]4CCCC[C@H]4N4CC(c5ccncc5)C4)ccc3C2=O)C(=O)N1` (single isomer, unassigned) [Compound 86-B], the EC50 in assay [1] was 76 nM. Besides, the results for the DC50 at IKZF1 (Ikaros) and on IKZF2 (Helios) [3] were more than 30000 nM and 189 nM, respectively. At IKZF2 (Helios) [2], the “IKZF2 % Degradation @ 1 μM” value was determined as 22.5%.
